# Source: patent US12221453B2, “Substituted pyrazolo[5′,1′:2,3]pyrimido[5,4-b][1,4]oxazines as TYK2 inhibitors” (TAKEDA PHARMACEUTICAL COMPANY LIMITED, priority 2018, dated 2025)
# Tested on: IL-12 induced STAT4 phosphorylation mediated by TYK2/JAK2
# Experiment: IL-12 induced pSTAT4 in human PBMC
# Type: cell-based
# Details: 1 hr compound, 1.7 ng/mL IL-12 for 30 minutes
# Summary of the method: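 Thawed human PBMC were pre-incubated with compound for 1 hr at 37 °C (0.1% DMSO), then stimulated with 1.7 ng/mL IL-12 for 30 minutes. Phospho-STAT4 and total STAT4 were measured in cell lysates by MSD.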
row,Compound,IC50 [µM]
1,CNc1cc(-c2cnc3n([C@H]4COC[C@@H]4O)cccc2-3)nc2c(C(=O)N[C@@H]3CC[C@H]3OC)cnn12 [Compound I-878],< 0.1
2,CNc1cc(-c2cnc3n([C@@H]4COC[C@H]4OC)cccc2-3)nc2c(C(=O)NC3CC[C@@H]3OC)cnn12 (stereo partly drawn) [Compound I-883],< 0.1
3,CNc1cc(-c2cnc3n([C@@H]4COC[C@H]4OC)cccc2-3)nc2c(C(=O)N[C@@H]3CC[C@H]3OC)cnn12 [Compound I-884],< 0.1
4,CNc1cc(-c2cnc3n([C@@H]4COC[C@H]4O)cccc2-3)nc2c(C(=O)NC3CCC3(F)F)cnn12 (stereo partly drawn) [Compound I-901],< 0.1
5,CNc1cc(-c2cn([C@H]3[C@@H]4COC[C@@H]43)c3ncccc23)nc2c(C(=O)N[C@H]3CC[C@@H]3O)cnn12 [Compound I-915],< 0.1
6,CNc1cc(-c2cn(CC(=O)N(C)C)c3ncccc23)nc2c(C(=O)N[C@H]3CC[C@@H]3OC)cnn12 [Compound I-921],< 0.1
7,CNc1cc(-c2cnc3n([C@@H]4CN(C)C[C@H]4OC)cccc2-3)nc2c(C(=O)N[C@H]3CC[C@@H]3OC)cnn12 [Compound I-944],< 0.1
8,CNc1cc(-c2cn(CC(=O)N3CCCC3)c3ncccc23)nc2c(C(=O)N[C@H]3CC[C@@H]3OC)cnn12 [Compound I-965],< 0.1
9,CNc1cc(-c2cnc3n(CCCN4CCOCC4)cccc2-3)nc2c(C(=O)N[C@H]3CC[C@@H]3OC)cnn12 [Compound I-990],< 0.1
10,CNc1cc(-c2cn(C(C)C)c3nnccc23)nc2c(C(=O)NC3CC[C@@H]3OC)cnn12 (stereo partly drawn) [Compound I-993],< 0.1
11,CNc1cc(-c2cnc3n([C@@H]4CCOC4)cccc2-3)nc2c(C(=O)N[C@H]3CC[C@@H]3OC)cnn12 [Compound I-1004],< 0.1
12,CNc1cc(-c2cnc3n(C4CCOCC4)cccc2-3)nc2c(C(=O)N[C@H]3CC[C@@H]3OC)cnn12 [Compound I-1014],< 0.1
13,"CNc1cc(Nc2cccn([C@H]3C[C@H](F)C3)c2=O)nc2c(C(=O)N[C@H]3CC[C@H]3O)cnn12 [I-16, 5-((1-((1r,3S)-3-Fluorocyclobutyl)-2-oxo-1,2-dihydropyridin-3-yl)amino)-N-((1S,2R)-2-hydroxycyclobutyl)-7-(methylamino)pyrazolo[1,5-a]pyrimidine-3-carboxamide]",< 0.1
14,"CNc1cc(Nc2cccn([C@H]3CC[C@H](OC)CC3)c2=O)nc2c(C(=O)N[C@H]3C[C@@H]3OC)cnn12 [I-32, 5-((1-((1r,4S)-4-Methoxycyclohexyl)-2-oxo-1,2-dihydropyridin-3-yl)amino)-N-((1S,2S)-2-methoxycyclopropyl)-7-(methylamino)pyrazolo[1,5-a]pyrimidine-3-carboxamide]",< 0.1
15,"CNc1cc(-c2cn([C@H]3C[C@@H](O)C3)c3ncccc23)nc2c(C(=O)NC3CC[C@H]3O)cnn12 (stereo partly drawn) [I-111, N-((cis-1,2)-2-Hydroxycyclobutyl)-5-(1-((1s,3R)-3-hydroxycyclobutyl)-1H-pyrrolo[2,3-b]pyridin-3-yl)-7-(methylamino)pyrazolo[1,5-a]pyrimidine-3-carboxamide]",0.1 to 0.5
16,"CNc1cc(-c2cn([C@H]3[C@@H]4COC[C@@H]43)c3ncccc23)nc2c(C(=O)N[C@H]3CC[C@@H]3OC)cnn12 [I-793, 5-(1-((1R,5S,6r)-3-oxabicyclo[3.1.0]hexan-6-yl)-1H-pyrrolo[2,3-b]pyridin-3-yl)-N-((1S,2S)-2-methoxycyclobutyl)-7-(methylamino)pyrazolo[1,5-a]pyrimidine-3-carboxamide]",< 0.1

# Second part, the compound after the results:
row,IC50 [µM],Compound
1,< 0.1,CNc1cc(-c2cnc3n([C@H]4COC[C@@H]4OC)cccc2-3)nc2c(C(=O)NC3CC[C@@H]3OC)cnn12 (stereo partly drawn) [Compound I-880]
2,< 0.1,CNc1cc(-c2cnc3n([C@H]4COC[C@@H]4OC)cccc2-3)nc2c(C(=O)N[C@@H]3CC[C@H]3OC)cnn12 [Compound I-881]
3,< 0.1,CNc1cc(-c2cnc3n([C@@H]4CCOC[C@H]4OC)cccc2-3)nc2c(C(=O)N[C@@H]3CC[C@H]3OC)cnn12 [Compound I-896]
4,< 0.1,CNc1cc(-c2cnc3n([C@H]4COC[C@@H]4O)cccc2-3)nc2c(C(=O)NC3CCC3(F)F)cnn12 (stereo partly drawn) [Compound I-898]
5,< 0.1,CNc1cc(-c2cnc3n([C@@H]4COC[C@H]4O)cccc2-3)nc2c(C(=O)N[C@H]3CCC3(F)F)cnn12 [Compound I-902]
6,< 0.1,CNc1cc(-c2cn([C@H]3C[C@@H](COC)C3)c3ncccc23)nc2c(C(=O)NC3CC[C@H]3O)cnn12 (stereo partly drawn) [Compound I-912]
7,< 0.1,CNc1cc(-c2cn([C@H]3C[C@@H](COC)C3)c3ncccc23)nc2c(C(=O)N[C@@H]3CC[C@@H]3O)cnn12 [Compound I-914]
8,< 0.1,CNc1cc(-c2cn([C@@H]3CCOC[C@H]3F)c3ncccc23)nc2c(C(=O)N[C@H]3CC[C@H]3O)cnn12 [Compound I-918]
9,< 0.1,CNc1cc(-c2cn(CCOC)c3ncccc23)nc2c(C(=O)N[C@H]3CC[C@@H]3OC)cnn12 [Compound I-923]
10,< 0.1,CNc1cc(-c2cn([C@H]3C[C@@H](COC)C3)c3ncccc23)nc2c(C(=O)N[C@H]3CC[C@@H]3OC)cnn12 [Compound I-933]
11,< 0.1,CNc1cc(-c2cnc3n([C@@H]4CN(C)C[C@H]4OC)cccc2-3)nc2c(C(=O)NC3CC[C@@H]3OC)cnn12 (stereo partly drawn) [Compound I-943]
12,< 0.1,CNc1cc(-c2cnc3n([C@H]4CN(C)C[C@@H]4OC)cccc2-3)nc2c(C(=O)N[C@H]3CC[C@@H]3OC)cnn12 [Compound I-947]
13,> 1,CNc1cc(-c2cnc3n(CC(=O)N4CCC4)cccc2-3)nc2c(C(=O)N[C@H]3CC[C@@H]3OC)cnn12 [Compound I-977]
14,< 0.1,CNc1cc(-c2cnc3n(CC(C)(C)O)cccc2-3)nc2c(C(=O)N[C@H]3CC[C@@H]3OC)cnn12 [Compound I-983]
15,< 0.1,CNc1cc(-c2cnc3n([C@@H]4CCOC4)cccc2-3)nc2c(C(=O)NC3CC[C@@H]3OC)cnn12 (stereo partly drawn) [Compound I-995]
16,< 0.1,CNc1cc(-c2cnc3n([C@H]4CCOC4)cccc2-3)nc2c(C(=O)N[C@H]3CC[C@@H]3OC)cnn12 [Compound I-1002]
17,< 0.1,CO[C@H]1CC[C@@H]1NC(=O)c1cnn2c(N)cc(-c3cnc4n([C@H]5COC[C@@H]5OC)cccc3-4)nc12 [Compound I-1006]
18,< 0.1,CNc1cc(-c2cn(C(C)C)c3nnccc23)nc2c(C(=O)N[C@@H]3CC[C@H]3OC)cnn12 [Compound I-1009]
19,> 1,CNc1cc(-c2cnc3n(CC(=O)N4CC5(COC5)C4)cccc2-3)nc2c(C(=O)N[C@H]3CC[C@@H]3OC)cnn12 [Compound I-1012]
20,< 0.1,CNc1cc(-c2cn([C@H]3CC(=O)N(C)C3)c3ncccc23)nc2c(C(=O)N[C@H]3CC[C@@H]3OC)cnn12 [Compound I-1024]
21,< 0.1,"CNc1cc(Nc2cccn([C@H]3[C@@H]4COC[C@@H]43)c2=O)nc2c(C(=O)N[C@@H]3C[C@H]3OC)cnn12 [I-25, 5-((1-((1R,5S,6r)-3-Oxabicyclo[3.1.0]hexan-6-yl)-2-oxo-1,2-dihydropyridin-3-yl)amino)-N-((1R,2R)-2-methoxycyclopropyl)-7-(methylamino)pyrazolo[1,5-a]pyrimidine-3-carboxamide]"
22,< 0.1,"CNc1cc(Nc2cccn([C@H]3CC[C@H](OC)CC3)c2=O)nc2c(C(=O)N[C@@H]3C[C@H]3OC)cnn12 [I-31, 5-((1-((1r,4R)-4-Methoxycyclohexyl)-2-oxo-1,2-dihydropyridin-3-yl)amino)-N-((1R,2R)-2-methoxycyclopropyl)-7-(methylamino)pyrazolo[1,5-a]pyrimidine-3-carboxamide]"
23,< 0.1,"CNc1cc(Nc2cccn([C@@H]3C[C@H]3F)c2=O)nc2c(C(=O)N[C@@H]3CC[C@H]3OC)cnn12 [I-53, 5-((1-((1R,2R)-2-Fluorocyclopropyl)-2-oxo-1,2-dihydropyridin-3-yl)amino)-N-((1R,2R)-2-methoxycyclobutyl)-7-(methylamino)pyrazolo[1,5-a]pyrimidine-3-carboxamide]"
24,< 0.1,"CNc1cc(Nc2cccn([C@H]3C[C@H](F)C3)c2=O)nc2c(C(=O)N[C@@H]3CC[C@H]3OC)cnn12 [I-57, 5-((1-((1r,3R)-3-Fluorocyclobutyl)-2-oxo-1,2-dihydropyridin-3-yl)amino)-N-((1R,2R)-2-methoxycyclobutyl)-7-(methylamino)pyrazolo[1,5-a]pyrimidine-3-carboxamide]"

# Molecular target: JAK2 (Invitrogen) kinase (Homo sapiens (Human), UniProt O60674)
# Experiment: JAK2 radioactive kinase assay
# Type: biochemical
# Details: compound at 10 μM; ATP at 10 μM; substrate poly[Glu:Tyr] (4:1)
# Method: Peptide substrate, [[…]], (20 μM) was prepared in reaction buffer (20 mM Hepes pH 7.5, 10 mM MgCl2, 1 mM EGTA, 0.02% Brij35, 0.02 mg/mL BSA, 0.1 mM […], 2 mM DTT, 1% DMSO. TYK2 (Invitrogen) kinase was added, followed by compounds in DMSO. 33PATP was added to initiate the reaction in ATP at 10 μM. Kinase reaction was incubated for 120 min at room temp and reactions were spotted onto P^81 ion exchange paper (Whatman #3698-915), and then washed extensively in 0.75% phosphoric acid, prior to reading the radioactivity counts. For JAK2 (Invitrogen) kinase assay the peptide substrate poly[Glu:Tyr] (4:1), 0.2 mg/mL was used, in the reaction carried out the same as for TYK2.
# Chain of JAK2 (Invitrogen) kinase (O60674 whole entry): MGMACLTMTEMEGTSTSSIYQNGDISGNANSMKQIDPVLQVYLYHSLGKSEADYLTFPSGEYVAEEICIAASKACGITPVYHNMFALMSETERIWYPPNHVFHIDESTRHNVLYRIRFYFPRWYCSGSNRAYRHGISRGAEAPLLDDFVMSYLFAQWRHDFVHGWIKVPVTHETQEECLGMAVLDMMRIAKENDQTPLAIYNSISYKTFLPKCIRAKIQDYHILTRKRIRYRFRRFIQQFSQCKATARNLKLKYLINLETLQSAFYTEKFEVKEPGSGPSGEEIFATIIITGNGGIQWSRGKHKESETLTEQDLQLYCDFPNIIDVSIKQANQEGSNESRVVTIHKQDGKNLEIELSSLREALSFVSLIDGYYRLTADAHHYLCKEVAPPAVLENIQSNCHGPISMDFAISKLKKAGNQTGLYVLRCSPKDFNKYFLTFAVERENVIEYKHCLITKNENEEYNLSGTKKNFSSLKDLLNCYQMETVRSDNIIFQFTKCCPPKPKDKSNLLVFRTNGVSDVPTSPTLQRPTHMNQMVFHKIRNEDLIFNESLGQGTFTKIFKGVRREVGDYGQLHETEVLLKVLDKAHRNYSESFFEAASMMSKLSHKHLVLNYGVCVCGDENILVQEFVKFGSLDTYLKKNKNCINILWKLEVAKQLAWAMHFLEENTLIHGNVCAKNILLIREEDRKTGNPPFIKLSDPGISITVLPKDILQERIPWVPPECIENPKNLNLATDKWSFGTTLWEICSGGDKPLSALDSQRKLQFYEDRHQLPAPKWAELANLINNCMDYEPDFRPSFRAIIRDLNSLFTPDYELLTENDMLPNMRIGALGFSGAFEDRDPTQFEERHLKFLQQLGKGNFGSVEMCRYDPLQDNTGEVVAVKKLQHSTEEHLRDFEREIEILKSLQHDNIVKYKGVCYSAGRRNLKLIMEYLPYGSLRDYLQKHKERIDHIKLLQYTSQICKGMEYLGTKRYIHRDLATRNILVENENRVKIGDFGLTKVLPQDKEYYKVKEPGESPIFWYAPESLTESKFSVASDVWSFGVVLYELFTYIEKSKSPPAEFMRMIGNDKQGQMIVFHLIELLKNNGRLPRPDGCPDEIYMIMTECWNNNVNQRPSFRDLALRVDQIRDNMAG
row,Compound,JAK2 (% Inhibition at 10 μM)
1,"CNc1cc(Nc2cccn([C@H]3CC[C@H](OC)CC3)c2=O)nc2c(C(=O)N[C@@H]3CC[C@@H](OC)C3)cnn12 [I-69, 5-((1-((1r,4R)-4-Methoxycyclohexyl)-2-oxo-1,2-dihydropyridin-3-yl)amino)-N-((1R,3R)-3-methoxycyclopentyl)-7-(methylamino)pyrazolo[1,5-a]pyrimidine-3-carboxamide]",A (had a percent inhibition at 10 μM lower than 50)
2,"CNc1cc(Nc2cccn([C@H]3CC[C@H](OC)CC3)c2=O)nc2c(C(=O)N[C@H]3CC[C@H](OC)C3)cnn12 [I-70, 5-((1-((1r,4S)-4-Methoxycyclohexyl)-2-oxo-1,2-dihydropyridin-3-yl)amino)-N-((1S,3S)-3-methoxycyclopentyl)-7-(methylamino)pyrazolo[1,5-a]pyrimidine-3-carboxamide]",A (had a percent inhibition at 10 μM lower than 50)
